These results are taken from patent US8637509B2, “Azaindazoles” (GlaxoSmithKline LLC, priority 2010, dated 2014).

T1 sequence (Q15910 whole entry): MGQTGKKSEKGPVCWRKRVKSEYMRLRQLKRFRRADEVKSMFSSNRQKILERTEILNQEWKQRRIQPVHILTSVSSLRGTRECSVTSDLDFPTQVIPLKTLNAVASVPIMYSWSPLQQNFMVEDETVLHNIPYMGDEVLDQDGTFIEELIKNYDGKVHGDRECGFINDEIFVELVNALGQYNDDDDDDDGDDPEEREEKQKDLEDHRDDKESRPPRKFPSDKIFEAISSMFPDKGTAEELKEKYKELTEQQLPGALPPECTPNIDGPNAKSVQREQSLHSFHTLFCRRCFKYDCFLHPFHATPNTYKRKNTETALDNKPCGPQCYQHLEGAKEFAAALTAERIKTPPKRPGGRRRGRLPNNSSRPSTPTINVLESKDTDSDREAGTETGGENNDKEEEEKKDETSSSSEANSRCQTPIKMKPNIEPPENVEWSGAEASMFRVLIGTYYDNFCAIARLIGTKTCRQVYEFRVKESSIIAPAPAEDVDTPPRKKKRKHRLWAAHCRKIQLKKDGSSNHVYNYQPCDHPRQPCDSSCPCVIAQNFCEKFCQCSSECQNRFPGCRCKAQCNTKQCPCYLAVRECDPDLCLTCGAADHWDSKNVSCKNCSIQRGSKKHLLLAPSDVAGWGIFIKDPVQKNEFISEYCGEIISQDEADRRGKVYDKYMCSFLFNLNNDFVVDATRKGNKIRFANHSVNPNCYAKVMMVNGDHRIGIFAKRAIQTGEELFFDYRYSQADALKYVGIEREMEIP
T1 sequence (O75530 whole entry partner): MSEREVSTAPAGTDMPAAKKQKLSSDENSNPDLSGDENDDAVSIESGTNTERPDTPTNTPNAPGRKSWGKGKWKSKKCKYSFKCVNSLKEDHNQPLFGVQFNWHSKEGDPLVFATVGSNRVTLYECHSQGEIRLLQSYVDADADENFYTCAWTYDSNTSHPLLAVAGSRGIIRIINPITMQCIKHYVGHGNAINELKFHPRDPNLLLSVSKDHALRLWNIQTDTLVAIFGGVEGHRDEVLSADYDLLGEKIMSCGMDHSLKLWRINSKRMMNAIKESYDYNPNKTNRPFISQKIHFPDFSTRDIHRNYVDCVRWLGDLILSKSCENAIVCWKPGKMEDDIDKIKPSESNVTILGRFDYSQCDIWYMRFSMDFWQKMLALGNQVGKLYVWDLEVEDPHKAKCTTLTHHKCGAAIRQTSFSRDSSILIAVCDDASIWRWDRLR
T1 sequence (Q15022 whole entry partner): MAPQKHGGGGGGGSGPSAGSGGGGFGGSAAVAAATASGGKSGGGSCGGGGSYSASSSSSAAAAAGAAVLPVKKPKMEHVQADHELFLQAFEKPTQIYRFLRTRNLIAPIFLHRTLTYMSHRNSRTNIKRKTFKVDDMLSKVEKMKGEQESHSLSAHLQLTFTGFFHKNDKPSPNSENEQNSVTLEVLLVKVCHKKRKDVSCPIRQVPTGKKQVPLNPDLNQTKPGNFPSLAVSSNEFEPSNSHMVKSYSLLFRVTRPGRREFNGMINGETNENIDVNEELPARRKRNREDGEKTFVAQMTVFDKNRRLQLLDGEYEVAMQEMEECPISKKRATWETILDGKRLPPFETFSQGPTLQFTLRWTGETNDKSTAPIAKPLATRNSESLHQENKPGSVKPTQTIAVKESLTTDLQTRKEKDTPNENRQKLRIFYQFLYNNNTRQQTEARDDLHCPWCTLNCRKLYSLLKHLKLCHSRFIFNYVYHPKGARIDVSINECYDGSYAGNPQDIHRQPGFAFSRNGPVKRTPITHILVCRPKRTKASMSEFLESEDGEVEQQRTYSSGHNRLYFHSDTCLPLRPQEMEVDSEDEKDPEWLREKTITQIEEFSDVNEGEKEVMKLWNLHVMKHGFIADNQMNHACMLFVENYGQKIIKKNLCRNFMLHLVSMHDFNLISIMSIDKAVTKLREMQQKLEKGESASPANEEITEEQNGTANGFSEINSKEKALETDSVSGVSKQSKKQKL

This experiment concerns the target T1, EZH2 (Homo sapiens, UniProt Q15910).
T1 construct: GRITS37108
Put plainly: EZH2 methyltransferase SPA assay (3H-SAM, Hela nucleosomes). The format is biochemical. To be noted: read-out: IC50.
Procedure: • 1. […] Prepare 500 μM SAH quench solution in ddH20 with 5-10 drops of concentrated HCl to dissolve. • 5. Prepare 6 mg/ml RNA binding SPA beads (Perkin Elmer) suspended in 0.2 M Citric Acid, pH 2.2
Part C. […] Dispense 5 μL no enzyme control (assay buffer mix) to column 18 of plates. • 2. Dispense 5 μL of enzyme mix to the remaining wells in the plate. Centrifuge plate to mix and incubate at room temperature for 30 minutes. • 3. Dispense 5 μL of substrate mix to all wells to initiate the reactions. Centrifuge plate to mix and incubate at room temperature for 2 hours. • 4. […] Dispense 10 μL of 6 mg/ml RNA binding SPA beads prepared in 0.2 M citric acid, pH 2.2 using the Evolution instrument. Continuously shake the beads while adding to plates to prevent beads from settling. • 6. Seal the plates with Perkin Elmer top seals and allow the beads to equilibrate in the plate for at least 30 minutes at room temperature. • 7. […] Read plates in Microbeta after at least 5 hours incubation. Plates can be read immediately, but signal increases over time.
Reagent addition can be done manually or with automated liquid handler.
*The final DMSO concentration in this assay is 1%.
*The positive control is in column 6; negative control is in column 18.
For orientation: IC50 means the concentration at which inhibition is half-maximal. `COc1cncc(-c2cc(C(=O)NCc3c(C)cc(C)[nH]c3=O)c3cnn(C(C)C)c3n2)c1` [Ex 58, N-[(4,6-Dimethyl-2-oxo-1,2-dihydro-3-pyridinyl)methyl]-1-(1-methylethyl)-6-[5-(methyloxy)-3-pyridinyl]-1H-pyrazolo[3,4-b]pyridine-4-carboxamide]: the IC50 came to 78 nM. `COc1cc(-c2cc(C(=O)NCc3c(C)cc(C)[nH]c3=O)c3cnn(C(C)C)c3n2)ccn1` [Ex 59, N-[(4,6-Dimethyl-2-oxo-1,2-dihydro-3-pyridinyl)methyl]-1-(1-methylethyl)-6-[2-(methyloxy)-4-pyridinyl]-1H-pyrazolo[3,4-b]pyridine-4-carboxamide]: the half-inhibitory concentration (IC50) is 155 nM.

On to `Cc1cc(C)c(CNC(=O)c2cc(-c3ccc(N)nc3)nc3c2cnn3C(C)C)c(=O)[nH]1` [Ex 60, 6-(6-Amino-3-pyridinyl)-N-[(4,6-dimethyl-2-oxo-1,2-dihydro-3-pyridinyl)methyl]-1-(1-methylethyl)-1H-pyrazolo[3,4-b]pyridine-4-carboxamide], for which the IC50 turned out to be 198 nM. In the case of `Cc1cc(C)c(CNC(=O)c2cc(-c3cncc(S(C)(=O)=O)c3)nc3c2cnn3C(C)C)c(=O)[nH]1` [Ex 61, N-[(4,6-Dimethyl-2-oxo-1,2-dihydro-3-pyridinyl)methyl]-1-(1-methylethyl)-6-[5-(methylsulfonyl)-3-pyridinyl]-1H-pyrazolo[3,4-b]pyridine-4-carboxamide], the IC50 was found to be 112 nM.

On to `Cc1cc(C)c(CNC(=O)c2cc(-c3ccco3)nc3c2cnn3C(C)C)c(=O)[nH]1` [Ex 62, N-[(4,6-Dimethyl-2-oxo-1,2-dihydro-3-pyridinyl)methyl]-6-(2-furanyl)-1-(1-methylethyl)-1H-pyrazolo[3,4-b]pyridine-4-carboxamide], for which the IC50 was 581 nM. To `CNC(=O)c1ccc(-c2cc(C(=O)NCc3c(C)cc(C)[nH]c3=O)c3cnn(C(C)C)c3n2)cn1` [Ex 63, N-[(4,6-Dimethyl-2-oxo-1,2-dihydro-3-pyridinyl)methyl]-6-[6-[(methylamino)carbonyl]-3-pyridinyl]-1-(1-methylethyl)-1H-pyrazolo[3,4-b]pyridine-4-carboxamide] belongs 96 nM. To `COc1ncc(-c2cc(C(=O)NCc3c(C)cc(C)[nH]c3=O)c3cnn(C(C)C)c3n2)cc1NS(=O)(=O)C1CC1` [Ex 64, 6-[5-[(Cyclopropylsulfonyl)amino]-6-(methyloxy)-3-pyridinyl]-N-[(4,6-dimethyl-2-oxo-1,2-dihydro-3-pyridinyl)methyl]-1-(1-methylethyl)-1H-pyrazolo[3,4-b]pyridine-4-carboxamide] belongs 79 nM; to `Cc1cc(C)c(CNC(=O)c2cc(-c3cncc(NS(=O)(=O)c4ccccc4)c3)nc3c2cnn3C(C)C)c(=O)[nH]1` [Ex 65, N-[(4,6-Dimethyl-2-oxo-1,2-dihydro-3-pyridinyl)methyl]-1-(1-methylethyl)-6-{5-[(phenylsulfonyl)amino]-3-pyridinyl}-1H-pyrazolo[3,4-b]pyridine-4-carboxamide], 55 nM. For `Cc1cc(C)c(CNC(=O)c2cc(-c3ccnc(N4CCOCC4)c3)nc3c2cnn3C(C)C)c(=O)[nH]1` [Ex 66, N-[(4,6-Dimethyl-2-oxo-1,2-dihydro-3-pyridinyl)methyl]-1-(1-methylethyl)-6-[2-(4-morpholinyl)-4-pyridinyl]-1H-pyrazolo[3,4-b]pyridine-4-carboxamide] the value was 81 nM; for `Cc1cc(C)c(CNC(=O)c2cc(-c3ccc(N4CCOCC4)nc3)nc3c2cnn3C(C)C)c(=O)[nH]1` [Ex 67, N-[(4,6-Dimethyl-2-oxo-1,2-dihydro-3-pyridinyl)methyl]-1-(1-methylethyl)-6-[6-(4-morpholinyl)-3-pyridinyl]-1H-pyrazolo[3,4-b]pyridine-4-carboxamide], 58 nM. Turning to `COc1ccc(-c2cc(C(=O)NCc3c(C)cc(C)[nH]c3=O)c3cnn(C(C)C)c3n2)cn1` [Ex 68, N-[(4,6-Dimethyl-2-oxo-1,2-dihydro-3-pyridinyl)methyl]-1-(1-methylethyl)-6-[6-(methyloxy)-3-pyridinyl]-1H-pyrazolo[3,4-b]pyridine-4-carboxamide], the IC50 came out at 76 nM. Take `CC(=O)Nc1ccc(-c2cc(C(=O)NCc3c(C)cc(C)[nH]c3=O)c3cnn(C(C)C)c3n2)cn1` [Ex 69, 6-[6-(Acetylamino)-3-pyridinyl]-N-[(4,6-dimethyl-2-oxo-1,2-dihydro-3-pyridinyl)methyl]-1-(1-methylethyl)-1H-pyrazolo[3,4-b]pyridine-4-carboxamide]: the IC50 stood at 25 nM. As to `Cc1cc(C)c(CNC(=O)c2cc(-c3ccccc3C)nc3c2cnn3C(C)C)c(=O)[nH]1` [Ex 70, N-[(4,6-Dimethyl-2-oxo-1,2-dihydro-3-pyridinyl)methyl]-1-(1-methylethyl)-6-(2-methylphenyl)-1H-pyrazolo[3,4-b]pyridine-4-carboxamide], the IC50 is 1890 nM. To `Cc1cc(C)c(CNC(=O)c2cc(-c3cn[nH]c3)nc3c2cnn3C(C)C)c(=O)[nH]1` [Ex 71, N-[(4,6-Dimethyl-2-oxo-1,2-dihydro-3-pyridinyl)methyl]-1-(1-methylethyl)-6-(1H-pyrazol-4-yl)-1H-pyrazolo[3,4-b]pyridine-4-carboxamide] belongs 402 nM. To `Cc1cc(C)c(CNC(=O)c2cc(-c3cnc(N)nc3)nc3c2cnn3C(C)C)c(=O)[nH]1` [Ex 72, 6-(2-Amino-5-pyrimidinyl)-N-[(4,6-dimethyl-2-oxo-1,2-dihydro-3-pyridinyl)methyl]-1-(1-methylethyl)-1H-pyrazolo[3,4-b]pyridine-4-carboxamide] belongs 171 nM. For `Cc1cc(C)c(CNC(=O)c2cc(-c3cccnc3)nc3c2cnn3C(C)C)c(=O)[nH]1` [Ex 73, N-[(4,6-Dimethyl-2-oxo-1,2-dihydro-3-pyridinyl)methyl]-1-(1-methylethyl)-6-(3-pyridinyl)-1H-pyrazolo[3,4-b]pyridine-4-carboxamide] the value was 533 nM. For the compound `Cc1cc(C)c(CNC(=O)c2cc(-c3ccc4[nH]ncc4c3)nc3c2cnn3C(C)C)c(=O)[nH]1` [Ex 74, N-[(4,6-Dimethyl-2-oxo-1,2-dihydro-3-pyridinyl)methyl]-6-(1H-indazol-5-yl)-1-(1-methylethyl)-1H-pyrazolo[3,4-b]pyridine-4-carboxamide], the IC50 came out at 151 nM.

Turning to `Cc1cc(C)c(CNC(=O)c2cc(-c3ccc4cn[nH]c4c3)nc3c2cnn3C(C)C)c(=O)[nH]1` [Ex 75, N-[(4,6-Dimethyl-2-oxo-1,2-dihydro-3-pyridinyl)methyl]-6-(1H-indazol-6-yl)-1-(1-methylethyl)-1H-pyrazolo[3,4-b]pyridine-4-carboxamide], the IC50 was found to be 131 nM. To `Cc1cc(C)c(CNC(=O)c2cc(-c3ccc4[nH]nnc4c3)nc3c2cnn3C(C)C)c(=O)[nH]1` [Ex 76, 6-(1H-1,2,3-Benzotriazol-5-yl)-N-[(4,6-dimethyl-2-oxo-1,2-dihydro-3-pyridinyl)methyl]-1-(1-methylethyl)-1H-pyrazolo[3,4-b]pyridine-4-carboxamide] belongs 82 nM. For `Cc1cc(C)c(CNC(=O)c2cc(-c3ccc4[nH]c(=O)[nH]c4c3)nc3c2c(C)nn3C(C)C)c(=O)[nH]1` [Ex 77, N-[(4,6-dimethyl-2-oxo-1,2-dihydro-3-pyridinyl)methyl]-3-methyl-1-(1-methylethyl)-6-(2-oxo-2,3-dihydro-1H-benzimidazol-5-yl)-1H-pyrazolo[3,4-b]pyridine-4-carboxamide] the value was 52 nM; for `Cc1cc(C)c(CNC(=O)c2cc(-c3ccc4c(c3)NC(=O)C4)nc3c2cnn3C(C)C)c(=O)[nH]1` [Ex 78, N-[(4,6-Dimethyl-2-oxo-1,2-dihydro-3-pyridinyl)methyl]-1-(1-methylethyl)-6-(2-oxo-2,3-dihydro-1H-indol-6-yl)-1H-pyrazolo[3,4-b]pyridine-4-carboxamide], 43 nM; for `Cc1cc(C)c(CNC(=O)c2cc(-c3ccc4c(c3)CC(=O)N4)nc3c2cnn3C(C)C)c(=O)[nH]1` [Ex 79, N-[(4,6-Dimethyl-2-oxo-1,2-dihydro-3-pyridinyl)methyl]-1-(1-methylethyl)-6-(2-oxo-2,3-dihydro-1H-indol-5-yl)-1H-pyrazolo[3,4-b]pyridine-4-carboxamide], 140 nM. As for `Cc1cc(C)c(CNC(=O)c2cc(-c3ccc4[nH]c(=O)[nH]c4c3)nc3c2cnn3C(C)C)c(=O)[nH]1` [Ex 80, N-[(4,6-Dimethyl-2-oxo-1,2-dihydro-3-pyridinyl)methyl]-1-(1-methylethyl)-6-(2-oxo-2,3-dihydro-1H-benzimidazol-5-yl)-1H-pyrazolo[3,4-b]pyridine-4-carboxamide], the IC50 came to 71 nM. Regarding `Cc1cc(C)c(CNC(=O)c2cc(-c3ccc(N4CCOCC4)nc3)nc3c2c(C)nn3C(C)C)c(=O)[nH]1` [Ex 83, N-[(4,6-Dimethyl-2-oxo-1,2-dihydro-3-pyridinyl)methyl]-3-methyl-1-(1-methylethyl)-6-[6-(4-morpholinyl)-3-pyridinyl]-1H-pyrazolo[3,4-b]pyridine-4-carboxamide], the half-maximal inhibitory concentration (IC50) came to 43 nM. For the compound `Cc1cc(C)c(CNC(=O)c2cc(Nc3ccncc3)nc3c2cnn3C(C)C)c(=O)[nH]1` [Ex 84, N-[(4,6-Dimethyl-2-oxo-1,2-dihydro-3-pyridinyl)methyl]-1-(1-methylethyl)-6-(4-pyridinylamino)-1H-pyrazolo[3,4-b]pyridine-4-carboxamide], the IC50 worked out at 99 nM. Consider `Cc1cc(C)c(CNC(=O)c2cc(Nc3ccc4[nH]c(=O)[nH]c4c3)nc3c2cnn3C(C)C)c(=O)[nH]1` [Ex 85, N-[(4,6-Dimethyl-2-oxo-1,2-dihydro-3-pyridinyl)methyl]-1-(1-methylethyl)-6-[(2-oxo-2,3-dihydro-1H-benzimidazol-5-yl)amino]-1H-pyrazolo[3,4-b]pyridine-4-carboxamide], for which the IC50 came to 31 nM. To `Cc1cc(C)c(CNC(=O)c2cc(-c3ccc(N4CCN(C)CC4)nc3)nc3c2c(C)nn3C(C)(C)C)c(=O)[nH]1` [Ex 87, 1-(1,1-Dimethylethyl)-N-[(4,6-dimethyl-2-oxo-1,2-dihydro-3-pyridinyl)methyl]-3-methyl-6-[6-(4-methyl-1-piperazinyl)-3-pyridinyl]-1H-pyrazolo[3,4-b]pyridine-4-carboxamide] belongs 18 nM.
